Legend:
Type in all cases: in vivo, guinea pig (Cavia porcellus)
[1] = tested on: recovery from myopia in guinea pigs; assay: Intravitreal nωPLA during recovery from −6D lens-induced myopia
Description: That is, if up-regulation of nNOS was causal in the myopic recovery response, injections of nωPLA would be expected to inhibit the ability of the myopic eye recover from myopia.
(§1) In this second experiment, thirty four guinea pigs were raised and measured as described in Example 1. To induce myopia, animals wore a −6D lens on one eye from P6-P13, which was then removed for 3 days to initiate recovery from myopia, exactly as described in Example 1, Group 3. During the recovery period, animals received daily intravitreal injections (10 μl into the eye which had worn the lens) of either 6 mM nωPLA (PLA, n=9) or vehicle (0.9% isotonic saline, pH 7.4, n=11) on postnatal days P13, P14, and P15. To study the effect of the drugs on normal growth, a further seven animals were raised for the same period without lenses, and from P13 received a vehicle injection into the left eye and a 6 mM nωPLA injection into the right eye for 3 days. The dosage level of 6 mM refers to the concentration of nωPLA in the syringe. (Considerably smaller doses would be experienced at the level of the retina). In all animals, refractive error and axial parameters were measured in both eyes before and after the recovery period, at P13 and P16. In lens-wearing animals, untreated fellow eyes served as matched controls and data is expressed as the relative difference between the lens-wearing eye and the fellow eye.

[2] = tested on: normal growth of guinea pig eyes; assay: Intravitreal nωPLA on normal growth (animals without lenses); conditions: 6 mM nωPLA right eye vs vehicle left eye, 3 days from P13, no lenses
Protocol: as §1

[3] = tested on: normal eye growth in guinea pigs; assay: Eye drops on normal growth and emmetropization (no lens wear); conditions: eye drops twice daily 9-16 days of age
Protocol: Two experimental protocols were employed (see Table 4). In Experiment 1, young guinea pigs wore a −6D lens on one eye from 5-12 days of age. They were randomly divided within each litter into two groups of 10 animals each, and received either a drop of L-Arginine (100 mM, 1.7%) in Saline (pH 7.4) or Saline alone (0.9%, pH 7.4) twice per day in the eye wearing the lens (Table 4). Drops were administered at the beginning of their light cycle and again approximately 6 hrs later in the middle of their day cycle. Lenses were removed during the drop administration which occurred under dim red light or in darkness. A single large drop was bathed on the cornea for 3 min in the lens-wearing eye in hand held animals. A clean lens was then reintroduced onto the eye. In Experiment 2, 14 guinea pigs were given eye drops in the same manner as in Experiment 1, but in both eyes and without any lens-wear, to determine the effect of the eye drops on normal eye growth. Animals received one drop of either 1.7% L-arginine (n=7) or atropine (Minims Atropine Sulphate 1%, Bausch & Lomb, preservative free, n=7) in one eye and saline (0.9%) in the other eye twice per day from 9-16 days of age.
In Experiment 1, at the end of the lens-wearing period, at 12 days of age just before the morning lights came on, both eyes were cyclopleged (1% Cyclopentolate—to paralyse the focussing muscles of the eye to a resting state) and 1.25 hours later, refractive error (RE) was measured. Animals were then anaesthetised with gaseous anaesthetic (1.5% isoflurane in oxygen) and eye length measures were taken in both eyes with high frequency ultrasound as described in Example 1. Biometry measures were also taken in the same manner before the lens wear period at 5 days of age. [No refractive measures were done at 5 days of age as cycloplegia could have interfered with the drug or lens response]. In Experiment 2, refractive error and eye length using ultrasound were measured in the same manner at 17 days of age, 24 hours after the previous drop was administered.
After cycloplegia was induced, refractive error was measured in each eye using an Autorefractor (Nidek AR-20, Japan). The spherical equivalent was calculated as the average of the sphere plus half the cylinder as is normal in clinical practice. All reported refractive errors are the spherical equivalent. Next, ocular length was measured using high frequency ultrasound (20 MHz) as previously described (McFadden et al, 2004). At least 20 traces were recorded for each eye and distances were averaged for at least 10 of these recordings. Peaks from the recordings were selected for the back of the cornea, the crystalline lens, and the vitreous chamber, and the layers at the back of the eye: the retina, choroid, and sclera. Ocular length was defined as the summed measurement from the front of the cornea to the back of the sclera.
Differences between the two eyes were analysed by a 2-tailed T-tests. The mean of calculated differences between the two eyes is referred to as relative myopia or relative ocular length and the difference in the change in ocular length in the treated compared to the untreated eye as relative growth.

Structure (SMILES) | difference between the eyes in refractive error after the three day recovery period ([1]; 6 mM nωPLA (in syringe) 10 μl intravitreal daily P13-P15, measured P16) [D] | ocular length relative to the saline group after the recovery period ([1]; 6 mM nωPLA intravitreal daily P13-P15, measured P16) | elongation in animals without myopia [2] | relative myopia in animals without myopia [2] | ocular length on average ([3]; measured at 17 days, p=0.22 between groups) [mm] | mean refractive error, both eyes averaged ([3]; measured at 17 days, p=0.32 between groups) | effect on refractive error (drug eye vs saline eye) ([3]; no lens, 1.7% LA (p=0.69) or 1% Atropine (p=0.40)) | difference between the two eyes in ocular length (drug eye vs saline control eye) ([3]; LA p=0.39, ATR p=0.42)
CCCN=C(N)NCCC[C@H](N)C(=O)O [nωPLA, N-w-propyl-L-arginine] | −5.4 | had longer eyes | no influence | no influence |  |  |  | 
CN1[C@@H]2CC[C@H]1C[C@@H](OC(=O)C(CO)c1ccccc1)C2 (some centres unmarked) [Atropine] |  |  |  |  | 8.192 | +5.08 | no difference in mean refractive error between the two eyes | +20 μm

From patent publication US10945980B2, “Treatment for myopia” (The University of Newcastle, priority 2016, dated 2021)
